Test system: Episkin™ reconstructed epidermides
Experiment: Diffusion of radioactively labelled caffeine through Episkin reconstructed epidermides (barrier function)
Format: cell-based
Details: 200 μg/ml; for Reduction of the passage of caffeine after 2 hours of application (in %): relative to the control
Method: Hydroxyapatite in the form of particles sold under the name Hydroxysomes™ by LSC and their combination with a calcium D-pantetheine sulfonate sold by SOGO Pharmaceutical were tested on an in vitro model to evaluate the overall effect of this combination on the barrier function of the skin.
This test consists in applying the test active agents to Episkin™ reconstructed epidermides differentiated on D13, and then, after incubation for 5 days, in applying radioactively labelled caffeine and monitoring the diffusion of the labelled caffeine through the reconstructed epidermides.
Vitamin C, which is known to improve the epidermal barrier function via stimulation of the synthesis of the epidermal lipids, is used as a reference molecule for this test (positive control). Water is used as a negative control.
Differentiated (D13) Episkin™ epidermides were placed in 12-well plates containing 2 ml of differentiation medium and were precultured at 37° C. and 5% CO2 for 24 hours. After incubation, the epidermides were treated topically with 100 μl of each concentration of test product or of the reference product (vitamin C).
Control epidermides were treated topically with 100 μl of water.
The epidermides were then incubated at 37° C. and 5% CO2 for 5 days, with changing of the medium and new application of the active agents after 2 days.
The treatments were performed in quintuplicate (n=5).
Four epidermides were used for the passage of caffeine and one “control” epidermis was kept to perform histology at the end of the experiment.
After treatment with the test active agents and the reference product (vitamin C), the epidermides were washed and the caffeine was applied to the surface of each epidermis at a rate of 100 μl containing 2 μCi/ml (0.04 mM) of radioactive caffeine and 0.35 mM of cold caffeine, which corresponds to about 500 000 cpm total.
The % activity of caffeine after 2 hours of application was measured.

O=C1O[C@H]([C@@H](O)CO)C(O)=C1O [Vitamin C]
activity at 200 µg/mL (topical 5 days, caffeine after 2 hours of application, read-out: % activity relative to the control): 59%
Reduction of the passage of caffeine after 2 hours of application (in %): −41%
Reduction of the passage of caffeine after 2 hours of application (in %) (listed as vitamin C): −41%
